Reference: paper PMC3313677 (Biochemistry, 2012)
Like-named read-outs stand apart in the source and are kept apart here.

Key:
[1] = target: Mandelate racemase (MR, EC 5.1.2.2); details: cited from earlier work
V22I MR = V22I MR (Pseudomonas putida, UniProt P11444, V22I); experiment: CD-based competitive inhibition of MR variant V22I; format: biochemical
V29D MR = details: read-out: Ki (competitive inhibition constant); cited from earlier work
T24S MR = T24S MR (Pseudomonas putida, UniProt P11444, T24S); experiment: CD-based competitive inhibition of MR variant T24S; format: biochemical
E317Q MR = details: read-out: Ki (competitive inhibition constant); cited from earlier work
N197A MR = details: read-out: Ki (competitive inhibition constant); cited from earlier work
A25V MR = A25V MR (Pseudomonas putida, UniProt P11444, A25V); experiment: CD-based competitive inhibition of MR variant A25V; format: biochemical
V26A/V29L MR = V26A/V29L MR (Pseudomonas putida, UniProt P11444, V26A/V29L); experiment: CD-based competitive inhibition of MR variant V26A/V29L; format: biochemical
F52W/Y54W MR = details: read-out: Ki (competitive inhibition constant); cited from earlier work
V29A MR = V29A MR (Pseudomonas putida, UniProt P11444, V29A); experiment: CD-based competitive inhibition of MR variant V29A; format: biochemical
Y54L MR = Y54L MR (Pseudomonas putida, UniProt P11444, Y54L); experiment: CD-based competitive inhibition of MR variant Y54L; format: biochemical
V26A MR = V26A MR (Pseudomonas putida, UniProt P11444, V26A); experiment: CD-based competitive inhibition of MR variant V26A; format: biochemical
V29F MR = V29F MR (Pseudomonas putida, UniProt P11444, V29F); experiment: CD-based competitive inhibition of MR variant V29F; format: biochemical
V26L MR = V26L MR (Pseudomonas putida, UniProt P11444, V26L); experiment: CD-based competitive inhibition of MR variant V26L; format: biochemical
V26F MR = V26F MR (Pseudomonas putida, UniProt P11444, V26F); experiment: CD-based competitive inhibition of MR variant V26F; format: biochemical
V22F MR = V22F MR (Pseudomonas putida, UniProt P11444, V22F); experiment: CD-based competitive inhibition of MR variant V22F; format: biochemical
F52W MR = details: read-out: Ki (competitive inhibition constant); cited from earlier work
Y54F MR = Y54F MR (Pseudomonas putida, UniProt P11444, Y54F); experiment: CD-based competitive inhibition of MR variant Y54F; format: biochemical
V22A MR = V22A MR (Pseudomonas putida, UniProt P11444, V22A); experiment: CD-based competitive inhibition of MR variant V22A; format: biochemical
[2] = reversible competitive inhibitor of MR

Sequence of V26L MR (P11444 whole entry V26L): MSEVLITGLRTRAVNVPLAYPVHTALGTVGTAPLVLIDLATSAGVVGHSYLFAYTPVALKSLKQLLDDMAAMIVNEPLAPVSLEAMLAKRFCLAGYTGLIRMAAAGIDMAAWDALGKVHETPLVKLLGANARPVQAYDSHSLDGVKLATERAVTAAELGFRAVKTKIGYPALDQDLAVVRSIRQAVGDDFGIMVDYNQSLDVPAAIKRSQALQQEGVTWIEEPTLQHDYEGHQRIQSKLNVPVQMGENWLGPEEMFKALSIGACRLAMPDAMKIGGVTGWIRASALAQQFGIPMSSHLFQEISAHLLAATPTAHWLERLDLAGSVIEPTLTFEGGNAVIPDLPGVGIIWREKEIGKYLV
Sequence of V22I MR (P11444 whole entry V22I): as the sequence (P11444 whole entry V26L) above, with V22I, L26V counted along it
Sequence of V26A/V29L MR (P11444 whole entry V26A/V29L): as the sequence (P11444 whole entry V26L) above, with L26A, V29L counted along it
Sequence of V26F MR (P11444 whole entry V26F): as the sequence (P11444 whole entry V26L) above, with L26F counted along it
Sequence of Y54F MR (P11444 whole entry Y54F): as the sequence (P11444 whole entry V26L) above, with L26V, Y54F counted along it
Sequence of V22A MR (P11444 whole entry V22A): as the sequence (P11444 whole entry V26L) above, with V22A, L26V counted along it
Sequence of T24S MR (P11444 whole entry T24S): as the sequence (P11444 whole entry V26L) above, with T24S, L26V counted along it
Sequence of V22F MR (P11444 whole entry V22F): as the sequence (P11444 whole entry V26L) above, with V22F, L26V counted along it
Sequence of V26A MR (P11444 whole entry V26A): as the sequence (P11444 whole entry V26L) above, with L26A counted along it
Sequence of V29F MR (P11444 whole entry V29F): as the sequence (P11444 whole entry V26L) above, with L26V, V29F counted along it
Sequence of Y54L MR (P11444 whole entry Y54L): as the sequence (P11444 whole entry V26L) above, with L26V, Y54L counted along it
Sequence of V29A MR (P11444 whole entry V29A): as the sequence (P11444 whole entry V26L) above, with L26V, V29A counted along it
Sequence of A25V MR (P11444 whole entry A25V): as the sequence (P11444 whole entry V26L) above, with A25V, L26V counted along it

**Q.** For C[C@@](O)(C(=O)O)c1ccccc1 [(S)-atrolactate], which Ki ([1]; ground state analogue, MR) is on record?
**A.** 150 µM

**Q.** For O=CN(O)c1ccccc1 [N-hydroxyformanilide], which Ki [1, 2] is on record?
**A.** 2.8 µM

**Q.** With CC(=O)NO [acetohydroxamate] as the compound, how does the Ki ([1]; MR) read?
**A.** 27000 µM

**Q.** With O=C(NO)c1ccccc1 [benzohydroxamate] as the compound, how does the Ki (V22I MR) read?
**A.** 29.2 ± 5.2 µM

**Q.** What about the Ki (V29D MR) of the same compound?
**A.** 2900 ± 700 µM

**Q.** What about the Ki [1, 2] of the same compound?
**A.** 9.3 µM

**Q.** What about the Ki (T24S MR) of the same compound?
**A.** 209 ± 9.9 µM

**Q.** And the Ki (E317Q MR)?
**A.** 760 ± 31 µM

**Q.** What about the Ki (N197A MR) of the same compound?
**A.** 216 ± 6 µM

**Q.** And the Ki (A25V MR)?
**A.** 611 ± 12.2 µM

**Q.** And the Ki (V26A/V29L MR)?
**A.** 79.2 ± 3.6 µM

**Q.** What about the Ki (F52W/Y54W MR) of the same compound?
**A.** 640 ± 190 µM

**Q.** And the Ki (V29A MR)?
**A.** 179 ± 23.3 µM

**Q.** What about the Ki (Y54L MR) of the same compound?
**A.** 25.7 ± 1.9 µM

**Q.** What about the Ki (V26A MR) of the same compound?
**A.** 69.3 ± 2.2 µM

**Q.** And the Ki (V29F MR)?
**A.** 40.1 ± 0.2 µM

**Q.** And the Ki (V26L MR)?
**A.** 440 ± 26.9 µM

**Q.** And the Ki (V26F MR)?
**A.** 462 ± 31.7 µM

**Q.** And the Ki (V22F MR)?
**A.** 229 ± 86.6 µM

**Q.** What about the Ki (F52W MR) of the same compound?
**A.** 63 ± 10 µM

**Q.** What about the Ki (Y54F MR) of the same compound?
**A.** 13.1 ± 1.1 µM

**Q.** What about the Ki (V22A MR) of the same compound?
**A.** 1080 ± 460 µM

**Q.** Which Ki [1, 2] does the source give for O=NN(O)c1ccccc1 [cupferron] here?
**A.** 2.7 µM

**Q.** Which Ki [1, 2] does the source give for O=P(O)(O)C(O)c1ccccc1 (stereo not drawn) [α-hydroxybenzylphosphonate] here?
**A.** 4.7 µM
